In article PMC7179685, “Iminosugars With Endoplasmic Reticulum α-Glucosidase Inhibitor Activity Inhibit ZIKV Replication and Reverse Cytopathogenicity in vitro” (Frontiers in Microbiology, 2020):
Structures can show the parent of a compound that is named as a salt.

Legend:
ZIKV PRVABC59 [1] = assay: Virus yield reduction assay (qRT-PCR and TCID50) in Vero cells; type: cell-based, Zika virus; settings: 1 μM, 48 hpi; for PRVABC59 ZIKV RNA in supernatant compared with vehicle control (qRT-PCR): MOI 0.5 and MOI 5, p ≤ 0.0318; for infectious PRVABC59 ZIKV titers (TCID50): MOI 0.5 and MOI 5, p ≤ 0.0433
Description: (§1) Zika virus yield reduction following treatment with iminosugars was assessed by measuring the NS1 gene by a previously described quantitative reverse transcription-polymerase chain reaction (qRT-PCR) and infectious virus titration in Vero cells ([Reed and Muench, 1938]; [Goebel et al., 2016]). Vero and CHME3 cells pre-treated 1 μM of castanospermine, celgosivir or DNJ for 2 h and then were infected with PRVABC59 either at MOI 0.5 or 5 in infection medium. After 2 h of incubation with the virus, medium from cells was removed, cells were washed with phosphate buffered saline, and fresh infection medium containing 1 μM of castanospermine, celgosivir or DNJ was added to the wells. At 48 and 72 hpi, culture supernatants were harvested and stored at −80°C until use for viral RNA extraction. Viral RNA was extracted from 50 μl of sample using the MagMAX-96 Viral RNA Isolation Kit (Applied Biosystems, Foster City, CA, United States) on a MagMAX Express-96 Deep Well Magnetic Particle Processor (Applied Biosystems). The amount of ZIKV genomic RNA was measured by qRT-PCR using SuperScript® III Platinum One-Step qRT-PCR Kit on a 7500 Fast Real-Time PCR System (Applied Biosystems). The primers (F: 5′-[…]-3′, R: 5′-[…]-3′) and probe sequence (5′- FAM-TGCCCAACA/ZEN/CAAGGTGAAGCC TACCT-BHQ) were purchased from Integrated DNA Technologies (IDT; Coralville, IA, United States), and the qRT-PCR cycling conditions included an initial cDNA synthesis for 30 min at 50°C, followed by 2 min at 95°C and 45 cycles of 2-step cycling at 95°C for 15 s, then 55°C for 30 s ([Goebel et al., 2016]). The ZIKV copy numbers were quantified using a standard curve generated with serial dilutions of positive control ZIKV RNA standards derived from ZIKV with known TCID50 value. Cell culture supernatants were titrated for the infectious virus in Vero cells, and titer was expressed as TCID50 calculated using the Reed-Muench method ([Reed and Muench, 1938]).

Vero cells = assay: Cytotoxicity, MTS cell viability assay in Vero cells; type: cell-based, African green monkey; settings: 72 h post treatment; for metabolic activity (cytotoxicity, MTS): 1000 μM; for metabolic activity compared to vehicle control (cytotoxicity, MTS): 0.01 to 100 μM
Description: (§2) A cell viability assay was used to evaluate both the cytotoxicity and antiviral abilities of the iminosugars with appropriate controls as previously described ([Fletcher et al., 2000]) using the CellTiter 96® AQueous One Solution Cell Proliferation Assay (MTS, Promega, Madison, WI, United States) following the manufacturer’s instructions. At 60–70% confluence, Vero cells and CHME3 cells were pretreated with iminosugars for 2 h and then infected with ZIKV according to the plate layout shown in Supplementary Figure S1. Four biological replicates were used to assess cytotoxicity, and six replicates were used to assess the antiviral ability of each iminosugar with concentrations ranging from 0.01 to 1000 μM or vehicle (sterile nuclease-free water). Cells treated with iminosugars or vehicle control were infected with ZIKV strain PRVABC59, IBH30656 or MEX 2-81 at a multiplicity of infection (MOI) of 1 in infection medium consisting of DMEM supplemented with 5% FBS and 1% antibiotic/antimycotic solution. The CHME3 infection medium was additionally supplemented with 0.1% non-essential amino acids (NEAA). At 72 h post-infection (hpi), MTS solution was added to the wells, and after 2 h, the optical density was measured at 490 nm using a microplate reader (ELx800; BioTek, Winooski, VT, United States). Previous studies have shown that ER α-glucosidase inhibitor, Celgosivir prevents DENV secretion in primary human macrophages with an EC50 of 5 μM and has CC50 greater than 1000 μM in MBDK cells ([Whitby et al., 2004]; [Sung et al., 2016]).

ZIKV strain PRVABC59 [2] = assay: Antiviral screening assay (MTS cell viability after infection) in Vero cells; type: cell-based, Zika virus; settings: for ZIKV-induced cell death (MTS): Vero cells, PRVABC59, MOI 1, 72 hpi; for viability at 0.01 µM: Zika virus, Vero, read-out: cell viability following ZIKV infection
Description: as §2

CHME3 cells [3] = assay: Cytotoxicity, MTS cell viability assay in CHME3 cells; type: cell-based, Human; settings: 72 h post treatment; for metabolic activity (cytotoxicity, MTS): 1000 μM; for metabolic activity compared to vehicle control (cytotoxicity, MTS): 0.01 to 100 μM
Description: as §2

ZIKV PRVABC59 [4] = assay: Virus yield reduction assay (qRT-PCR and TCID50) in CHME3 cells; type: cell-based, Zika virus; settings: 1 μM, 48 hpi
Description: as §1

ZIKV strain PRVABC59 [5] = assay: Antiviral screening assay (MTS cell viability after infection) in CHME3 cells; type: cell-based, Zika virus; settings: for ZIKV-induced cell death (MTS): PRVABC59, MOI 1, 72 hpi; for viability at 0.01 µM: Zika virus, read-out: cell viability following ZIKV infection
Description: as §2

ZIKV = system: ZIKV; set-up: method as in Ma et al., 2018; settings: ref Ma et al., 2018, cited from earlier work
dengue virus (DENV) = system: dengue virus (DENV); set-up: method as in Rathore et al., 2011; settings: BHK-21 cells; MOI 0.3; ref Rathore et al., 2011; cited from earlier work
[6] = system: activated caspases 3 and 7; assay: Measurement of apoptosis, Caspase-Glo 3/7 assay in ZIKV-infected CHME3 cells; type: cell-based, Human; settings: PRVABC59, MOI 1, 0.01 to 1000 μM, 48 and 72 hpi
Description: Apoptotic cell death was evaluated by measuring the levels of active caspase 3 and 7 in cells using the Caspase-Glo® 3/7 Assay (Promega) following the manufacturer’s instructions. CHME3 cells in 96-well white-walled cell culture plates (Greiner Bio-One, Kremsmünster, Austria) were pre-treated with celgosivir for 2 h and then infected with PRVABC59 at MOI 1 in the presence of celgosivir at concentrations ranging from 0.01 to 1000 μM or vehicle. Controls for media color, cells, and virus were included. At 48 and 72 hpi, Caspase-Glo® Reagent was added, and after 30 min the luminescence of each sample was read five times using a Spark multimode microplate reader (TECAN, Männedorf, Switzerland) at an interval of 2 min for 15 s. The average of the five readings was used as the measurement for each biological replicate.

MBDK cells = system: MBDK cells; set-up: method as in Whitby et al., 2004; Sung et al., 2016; settings: ref Whitby et al., 2004, Sung et al., 2016; cited from earlier work
CHME3 cells [7] = assay: Measurement of necrosis, LDH assay in ZIKV-infected CHME3 cells; type: cell-based, Human; settings: PRVABC59, MOI 1, 72 hpi
Description: Cell necrosis was evaluated by measuring the levels of lactate dehydrogenase (LDH) in cells using the CytoTox 96 Non-Radioactive Cytotoxicity Assay (Promega) following the manufacturer’s instructions. LDH is a soluble stable cytosolic enzyme present in many cell types which is rapidly released into the cell culture medium following disruption of the plasma membrane. LDH is a widely used marker to measure cellular cytotoxicity and necrosis. CHME3 cells in 96-well cell culture plates were pre-treated with celgosivir for 2 h and then infected with PRVABC59 at MOI 1 in the presence of celgosivir at concentrations ranging from 0.01 to 1000 μM or vehicle. Controls for media color, cells, and virus were included. At 48 and 72 hpi, 50 μl of supernatant from each well was transferred into a new 96-well plate, and 50 μl of CytoTox 96® Reagent was added to each well. After incubating at room temperature in the dark, 50 μl of Stop Solution was added to each well, and the optical density was measured at 490 nm using an ELx800 microplate reader (BioTek).

DENV = system: DENV; set-up: method as in Whitby et al., 2004; Sung et al., 2016; settings: primary human macrophages; ref Whitby et al., 2004; Sung et al., 2016; read-out: EC50, prevention of DENV secretion; cited from earlier work
[8] = system: MDA5, RIG-I, MX1, IRF7, IFNβ, ISG15; assay: Antiviral gene expression by qRT-PCR in CHME3 cells; type: cell-based, Human; settings: 1 μM
Description: CHME3 cells grown in 6-well plates and at 70% confluency were infected with PRVABC59 at MOI 1. After pre-incubation with the virus for 2 h, medium from cells was removed, cells were washed with PBS, and fresh infection medium containing 1 μM celgosivir was added. Negative control wells were added with infection medium without celgosivir. Three wells were used for each treatment. At 24, 48, and 72 h, total RNA was extracted from cells using the RNeasy Plus Minikit (Qiagen, Hilden, Germany) according to the manufacturer’s protocol. Complementary DNA was synthesized from 1 μg of total RNA using 4 μl of qScript cDNA SuperMix (5x) (QuantaBio, Beverly, MA, United States). qRT-PCR was performed on a 7500 Fast Real-Time PCR System (Applied Biosystems) using PowerSybr Green PCR MasterMix (Applied Biosystems) according to the manufacturer’s instructions. Expression of retinoic acid-inducible gene 1 (RIGI), melanoma differentiation-associated protein 5 (MDA5), interferon regulatory factor 7 (IRF7), interferon β (IFNβ), interferon-induced GTP-binding protein (MX1) and interferon-stimulated gene 15 (ISG15) were quantified, and hypoxanthine phosphoribosyltransferase 1 (HPRT1) was used as a house-keeping gene for data normalization. All primers used were previously published and were supplied by IDT ([Megiorni et al., 2005]; [Kim et al., 2008]; [Nasirudeen et al., 2011]; [Muramatsu et al., 2014]; [Seng et al., 2014]; [Liu et al., 2015]; [Livingstone et al., 2015]).

Row | SMILES | PRVABC59 ZIKV RNA in supernatant compared with vehicle control (qRT-PCR) (ZIKV PRVABC59 [1]) | infectious PRVABC59 ZIKV titers (TCID50) (ZIKV PRVABC59 [1]) | metabolic activity (cytotoxicity, MTS) (Vero cells) | metabolic activity compared to vehicle control (cytotoxicity, MTS) (Vero cells) | ZIKV-induced cell death (MTS) (ZIKV strain PRVABC59 [2]) | viability at 0.01 µM (ZIKV strain PRVABC59 [2]) [%] | metabolic activity (cytotoxicity, MTS) (CHME3 cells [3]) | metabolic activity compared to vehicle control (cytotoxicity, MTS) (CHME3 cells [3]) | infectious PRVABC59 ZIKV titers (TCID50) (ZIKV PRVABC59 [4]; MOI 0.5) | infectious PRVABC59 ZIKV titers (TCID50) (ZIKV PRVABC59 [4]; MOI 5, p ≤ 0.0433) | ZIKV-induced cell death (MTS) (ZIKV strain PRVABC59 [5]; CHME3 cells) | viability at 0.01 µM (ZIKV strain PRVABC59 [5]) [%] | other results
1 | OC[C@H]1NC[C@H](O)[C@@H](O)[C@@H]1O [DNJ, 1-deoxynojirimycin hydrochloride] | Significant reductions | statistically significant reduction | decrease in metabolic activity | No reduction in metabolic activity | reduce ZIKV-induced cell death | > 90 | decrease in metabolic activity | No reduction in metabolic activity | statistically significant reduction | statistically significant reduction | reduce ZIKV-induced cell death | > 90 | –
2 | CC(C)(C)NC(=O)N(CCCCCCN1C[C@H](O)[C@@H](O)[C@H](O)[C@H]1CO)C1CCCCC1 [IHVR-19029] | – | – | – | – | – | – | – | – | – | – | – | – | ZIKV RNA production (ZIKV; HEK293 embryonic kidney cells, MOI 0.1, 0.1 μM, the lowest concentration tested): decreased ZIKV RNA production; ZIKV viral replication (ZIKV; embryonic kidney cells): reduced
3 | O[C@H]1[C@H](O)[C@@H](O)CN2CC[C@H](O)[C@H]12 [castanospermine] | Significant reductions | statistically significant reduction | decrease in metabolic activity | No reduction in metabolic activity | reduce ZIKV-induced cell death | – | decrease in metabolic activity | No reduction in metabolic activity | not statistically significant | statistically significant reduction | reduce ZIKV-induced cell death | – | PRVABC59 ZIKV RNA in supernatant, reduction vs control cells (qRT-PCR) (ZIKV PRVABC59 [4]; MOI 5): not significant; cell viability following ZIKV infection (ZIKV strain PRVABC59 [5]; CHME3 cells, MOI 1, 10 μM required): 90%
4 | CCCC(=O)O[C@H]1CN2CC[C@H](O)[C@@H]2[C@@H](O)[C@@H]1O [celgosivir, 6-O-butanoyl castanospermine] | Significant reductions | statistically significant reduction | decrease in metabolic activity | No reduction in metabolic activity | reduce ZIKV-induced cell death | > 90 | decrease in metabolic activity | No reduction in metabolic activity | statistically significant reduction | statistically significant reduction | reduce ZIKV-induced cell death | > 90 | effectiveness against DENV relative to castanospermine (dengue virus (DENV)): 100 times; levels of activated caspases 3 and 7 in comparison to untreated infected cells [6]: did not significantly reduce; CC50 (MBDK cells): > 1000 µM; ZIKV-induced LDH activity (necrosis) (CHME3 cells [7]): reduced PRVABC59 ZIKV-induced LDH activity to levels equivalent to mock-infected cells; EC50 (DENV): 5 µM; decrease of IFNβ expression levels ([8]; PRVABC59 ZIKV-infected CHME3 cells, treated vs not treated, 48 hpi, p = 0.033): 27%; expression levels of MDA5, RIG-I, MX1, IRF7, and ISG15, treated vs vehicle-treated ([8]; PRVABC59 ZIKV-infected CHME3 cells, any timepoint (24, 48, 72 h)): not significantly different; decrease of IFNβ gene expression ([8]; mock-infected CHME3 cells, treated vs untreated, 48 hpi, statistically significant): 22%; level of IFNβ expression, treated vs untreated ([8]; mock-infected CHME3 cells, 72 hpi): similar
